# According to US8350027B2, “Dual-acting pyrazole antihypertensive agents” (Theravance, Inc., priority 2009, dated 2013):
# How the values were obtained:
# human AT1 receptor = molecular target: T1, human AT1 receptor (Homo sapiens, UniProt P30556); test: AT1 radioligand binding assay (displacement of [Eu]AngII); details: membranes of CHO-K1 cells expressing cloned human AT1 receptor; values given as lower bounds; read-out: AT1 pKi (converted)
# T1 construct: expressed in transfected cells; host or cells: CHO-K1
# T1 sequence (P30556 1-359): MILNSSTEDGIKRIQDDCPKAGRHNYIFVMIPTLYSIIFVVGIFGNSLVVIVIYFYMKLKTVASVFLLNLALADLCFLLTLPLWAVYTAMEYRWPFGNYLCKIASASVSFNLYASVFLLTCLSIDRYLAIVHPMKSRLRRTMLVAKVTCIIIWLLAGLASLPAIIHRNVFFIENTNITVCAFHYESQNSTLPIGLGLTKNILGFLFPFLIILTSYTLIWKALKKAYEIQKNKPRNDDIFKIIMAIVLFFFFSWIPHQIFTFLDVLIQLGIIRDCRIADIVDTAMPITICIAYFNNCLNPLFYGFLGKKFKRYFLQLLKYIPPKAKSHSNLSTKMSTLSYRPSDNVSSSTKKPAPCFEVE
# Description: A. AT1 and AT2 Radioligand Binding Assays
# These in vitro assays were used to assess the ability of test compounds to bind to the AT1 and the AT2 receptors.
# Membrane Preparation from Cells Expressing Human AT1 or AT2 Receptors
# Chinese hamster ovary (CHO-K1) derived cell lines stably expressing the cloned human AT1 or AT2 receptors, respectively, were grown in HAM's-F12 medium supplemented with 10% fetal bovine serum, 10 μg/ml penicillin/streptomycin, and 500 μg/ml geneticin in a 5% CO2 humidified incubator at 37° C. AT2 receptor expressing cells were grown in the additional presence of 100 nM PD123,319 (AT2 antagonist). When cultures reached 80-95% confluence, the cells were washed thoroughly in PBS and lifted with 5 mM EDTA. Cells were pelleted by centrifugation and snap frozen in MeOH-dry ice and stored at −80° C. until further use.
# For membrane preparation, cell pellets were resuspended in lysis buffer (25 mM Tris/HCl pH 7.5 at 4° C., 1 mM EDTA, and one tablet of Complete Protease Inhibitor Cocktail Tablets with 2 mM EDTA per 50 mL buffer (Roche cat.#1697498, Roche Molecular Biochemicals, Indianapolis, Ind.)) and homogenized using a tight-fitting Dounce glass homogenizer (10 strokes) on ice. The homogenate was centrifuged at 1000×g, the supernatant was collected and centrifuged at 20,000×g. The final pellet was resuspended in membrane buffer (75 mM Tris/HCl pH 7.5, 12.5 mM MgCl2, 0.3 mM EDTA, 1 mM EGTA, 250 mM sucrose at 4° C.) and homogenized by extrusion through a 20G gauge needle. Protein concentration of the membrane suspension was determined by the method described in Bradford (1976) Anal Biochem. 72:248-54. Membranes were snap frozen in MeOH-dry ice and stored at −80° C. until further use.
# Ligand Binding Assay to Determine Compound Affinities for the Human AT1 and AT2 Angiotensin Receptors
# Binding assays were performed in 96-well Acrowell filter plates (Pall Inc., cat.#5020) in a total assay volume of 100 μL with 0.2 μg membrane protein for membranes containing the human AT1 receptor, or 2 μg membrane protein for membranes containing the human AT2 receptor in assay buffer (50 mM Tris/HCl pH 7.5 at 20° C., 5 mM MgCl2, 25 μM EDTA, 0.025% BSA). Saturation binding studies for determination of Kd values of the ligand were done using N-terminally Europium-labeled angiotensin-II ([Eu]AngII, H-(Eu-N^1)-Ahx-Asp-Arg-Val-Tyr-Ile-His-Pro-Phe-OH; PerkinElmer, Boston, Mass.) at 8 different concentrations ranging from 0.1 nM to 30 nM. […] Drugs were dissolved to a concentration of 1 mM in DMSO and from there serially diluted into assay buffer. Non-specific binding was determined in the presence of 10 μM unlabeled angiotensin-II. Assays were incubated for 120 minutes in the dark, at room temperature or 37° C., and binding reactions were terminated by rapid filtration through the Acrowell filter plates followed by three washes with 200 μL ice cold wash buffer (50 mM Tris/HCl pH 7.5 at 4° C., 5 mM MgCl2) using a Waters filtration manifold. Plates were tapped dry and incubated with 50 μl DELFIA Enhancement Solution (PerkinElmer cat.#4001-0010) at room temperature for 5 minutes on a shaker. Filter-bound [Eu]AngII was quantitated immediately on a Fusion plate reader (PerkinElmer) using Time Resolved Fluorescence (TRF). Binding data were analyzed by nonlinear regression analysis with the GraphPad Prism Software package (GraphPad Software, Inc., San Diego, Calif.) using the 3-parameter model for one-site competition. The BOTTOM (curve minimum) was fixed to the value for nonspecific binding, as determined in the presence of 10 μM angiotensin II. Ki values for drugs were calculated from observed IC50 values and the Kd value of [Eu]AngII according to the Cheng-Prusoff equation described in Cheng et al. (1973) Biochem Pharmacol. 22 (23):3099-108. Selectivities of test compounds for the AT1 receptor over the AT2 receptor were calculated as the ratio of AT2Ki/AT1Ki. […]
# NEP enzyme = molecular target: T2, NEP enzyme (Homo sapiens, UniProt P08473); test: NEP enzyme inhibition assay (fluorogenic peptide substrate); format: biochemical; details: values given as lower bounds; * = prodrugs, may not exhibit NEP activity in an in vitro assay; read-out: NEP pIC50 (converted)
# T2 construct: purchased R&D Systems, Minneapolis, Minn; 1182-ZN
# T2 sequence (P08473 52-750 limits assumed): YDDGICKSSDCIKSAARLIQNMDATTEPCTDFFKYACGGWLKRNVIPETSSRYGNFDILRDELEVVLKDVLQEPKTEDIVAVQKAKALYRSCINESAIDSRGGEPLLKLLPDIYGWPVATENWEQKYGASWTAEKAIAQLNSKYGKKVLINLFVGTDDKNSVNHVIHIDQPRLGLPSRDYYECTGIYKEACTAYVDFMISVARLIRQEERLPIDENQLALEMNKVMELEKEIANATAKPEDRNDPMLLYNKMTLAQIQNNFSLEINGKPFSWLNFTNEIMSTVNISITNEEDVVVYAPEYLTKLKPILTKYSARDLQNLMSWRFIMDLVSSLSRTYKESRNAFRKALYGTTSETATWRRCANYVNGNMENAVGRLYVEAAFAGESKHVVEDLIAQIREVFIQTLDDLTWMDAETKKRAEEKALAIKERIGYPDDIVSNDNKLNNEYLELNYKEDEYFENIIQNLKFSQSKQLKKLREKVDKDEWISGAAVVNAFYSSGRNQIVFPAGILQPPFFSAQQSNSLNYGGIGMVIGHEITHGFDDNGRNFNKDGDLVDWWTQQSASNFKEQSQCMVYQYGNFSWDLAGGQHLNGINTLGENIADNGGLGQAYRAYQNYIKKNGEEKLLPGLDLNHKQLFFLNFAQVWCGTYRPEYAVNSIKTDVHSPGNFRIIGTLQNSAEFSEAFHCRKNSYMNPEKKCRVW
# Description: B. In Vitro Assays for the Quantitation of Inhibitor Potencies (IC50) at Human and Rat NEP, and Human ACE
# The inhibitory activities of compounds at human and rat NEP and human ACE were determined using in vitro assays as described below.
# Recombinant human NEP and recombinant human ACE were obtained commercially (R&D Systems, Minneapolis, Minn., catalog numbers 1182-ZN and 929-ZN, respectively). The fluorogenic peptide substrate Mca-BK2 (Mca-Arg-Pro-Pro-Gly-Phe-Ser-Ala-Phe-Lys(Dnp)-OH; Johnson et al. (2000) Anal. Biochem. 286: 112-118) was used for the human NEP and ACE assays, and Mca-RRL (Mca-DArg-Arg-Leu-(Dnp)-OH; Medeiros et al. (1997) Braz. J. Med. Biol. Res. 30:1157-1162) was used for the rat NEP assay (both from Anaspec, San Jose, Calif.).
# The assays were performed in 384-well white opaque plates at room temperature using the respective fluorogenic peptides at a concentration of 10 μM in assay buffer (50 mM Tris/HCl at 25° C., 100 mM NaCl, 0.01% Tween-20, 1 μM Zn, 0.025% BSA). […] The rat NEP enzyme preparation was used at a concentration that yielded quantitative proteolysis of 3 μM of Mca-RRL within 20 minutes at room temperature.
# Test compounds were diluted to 12 concentrations from 10 μM to 20 pM in Assay Buffer. Assays were started by adding 25 μL of enzyme to 12.5 μL of test compound at each of the 12 concentrations. Test compounds were allowed to equilibrate with the enzyme for 10 minutes before 12.5 μL of the fluorogenic substrates were added to initiate the reaction. Reactions were terminated by the addition of 10 μL of 3.6% glacial acetic acid after 20 minutes of incubation.
# For sulfhydryl-containing test compounds, the test compounds may be diluted in Assay Buffer containing a 400 μM concentration of tris(2-carboxyethyl)phosphine hydrochloride (Thermo Scientific, Rockford, Ill.) (TCEP). The test compounds are then incubated for 40 minutes at room temperature (to allow for dimer cleavage) before adding the enzyme. Test compounds are then allowed to equilibrate with the enzyme for 20 minutes before adding the fluorogenic substrates. Reactions are terminated as above.
# Plates were read on a fluorometer with excitation and emission wavelengths set to 320 nm and 405 nm, respectively. Raw data (relative fluorescence units) were normalized to % activity from the average high readings (no inhibition, 100% enzyme activity) and average low readings (full inhibition, highest inhibitor concentration, 0% enzyme activity) using three standard NEP and ACE inhibitors, respectively. Nonlinear regression of the normalized data was performed using a one site competition model (GraphPad Software, Inc., San Diego, Calif.). Data were reported as pIC50 values.
Ki (human AT1 receptor),IC50 (NEP enzyme),SMILES
≤ 10 nM,≤ 100 nM,"CCCc1cc(C(=O)N[C@@H](CC(=O)O)CC(C)C)nn1Cc1ccc(-c2ccccc2-c2nnn[nH]2)nc1 [Example 14-7, (R)-5-Methyl-3-[(5-propyl-1-{6-[2-(1H-tetrazol-5-yl)-phenyl]-pyridin-3-ylmethyl}-1H-pyrazole-3-carbonyl)-amino]hexanoic acid]"
≤ 100 nM,≤ 100 nM,"CCCc1cc(C(=O)N[C@H](Cc2ccccc2)[C@@H](O)C(=O)O)nn1Cc1cnc(-c2ccccc2S(=O)(=O)NC(C)=O)cn1 [Example 17-5, (2R,3R)-3-({1-[5-(2-Acetylsulfamoylphenyl)pyrazin-2-ylmethyl]-5-propyl-1H-pyrazole-3-carbonyl}amino)-2-hydroxy-4-phenylbutyric acid]"
≤ 10 nM,≤ 10000 nM,"CCCc1cc(C(=O)N[C@@H](CC(=O)OC)Cc2ccccc2Cl)nn1Cc1ccc(-c2ccccc2-c2nnn[nH]2)cc1 [Example 3-28, (R)-4-(2-Chlorophenyl)-3-({5-propyl-1-[2′-(1H-tetrazol-5-yl)biphenyl-4-ylmethyl]-1H-pyrazole-3-carbonyl}amino)butyric acid methyl ester]"
≤ 10 nM,≤ 1000 nM,"CCCc1cc(C(=O)N[C@@H](CC(=O)O)Cc2ccccc2Cl)nn1Cc1cnc(-c2ccccc2-c2nnn[nH]2)cn1 [Example 17-2, (R)-4-(2-Chlorophenyl)-3-[(5-propyl-1-{5-[2-(1H-tetrazol-5-yl)phenyl]pyrazin-2-ylmethyl}-1H-pyrazole-3-carbonyl)amino]butyric acid]"
≤ 10 nM,≤ 100 nM,"CCCc1cc(C(=O)N[C@@H](CC(=O)NO)Cc2ccccc2)nn1Cc1ccc(-c2ccccc2S(=O)(=O)NC(C)=O)c(F)c1 [Example 6-17, 1-(2′-Acetylsulfamoyl-2-fluorobiphenyl-4-ylmethyl)-5-propyl-1H-pyrazole-3-carboxylic acid ((R)-1-hydroxycarbamoylmethyl-2-phenylethyl)amide]"
≤ 10 nM,≤ 100 nM,"CCCc1cc(C(=O)N[C@@H](CC(=O)NO)Cc2ccccc2)nn1Cc1ccc(-c2ccccc2-c2nnn[nH]2)cc1 [Example 3-16, 5-Propyl-1-[2′-(1H-tetrazol-5-yl)-biphenyl-4-ylmethyl]-1H-pyrazole-3-carboxylic acid ((R)-1-hydroxycarbamoylmethyl-2-phenylethyl)amide]"
≤ 10 nM,≤ 1000 nM,"CCCc1cc(C(=O)N[C@@H](CC(=O)O)Cc2ccccc2Cl)nn1Cc1ccc(-c2ccccc2-c2nnn[nH]2)c(F)c1 [Example 3-18, (R)-4-(2-Chlorophenyl)-3-({1-[2-fluoro-2′-(1H-tetrazol-5-yl)biphenyl-4-ylmethyl]-5-propyl-1H-pyrazole-3-carbonyl}amino)butyric acid]"
≤ 10 nM,≤ 100 nM,"CCCc1cc(C(=O)N[C@H](CC(C)C)CN(O)C=O)nn1Cc1ccc(-c2ccccc2-c2nnn[nH]2)cc1 [Example 3-25, 5-Propyl-1-[2′-(1H-tetrazol-5-yl)-biphenyl-4-ylmethyl]-1H-pyrazole-3-carboxylic acid {(R)-1-[(formylhydroxyamino)methyl]-3-methylbutyl}amide]"
≤ 10 nM,≤ 100 nM,"CCCc1cc(C(=O)N[C@H](Cc2ccccc2)[C@@H](O)C(=O)O)nn1Cc1ccc(-c2ccccc2S(=O)(=O)NC(=O)NC)cc1 [Example 7-11, (2R,3R)-2-hydroxy-3-(1-((2′-(N-(methylcarbamoyl)sulfamoyl)biphenyl-4-yl)methyl)-5-propyl-1H-pyrazole-3-carboxamido)-4-phenylbutanoic acid]"
≤ 10 nM,≤ 1000 nM,"CCCc1cc(C(=O)N[C@@H](CC(=O)O)Cc2ccccc2Cl)nn1Cc1ccc(-c2ccccc2-n2nn[nH]c2=O)cc1 [Example 16-5, (R)-4-(2-Chlorophenyl)-3-({1-[2′-(5-oxo-4,5-dihydrotetrazol-1-yl)-biphenyl-4-ylmethyl]-5-propyl-1H-pyrazole-3-carbonyl}amino)butyric acid]"
≤ 10 nM,≤ 100 nM,"CCCc1cc(C(=O)N[C@H](Cc2ccccc2Cl)[C@@H](O)C(=O)O)nn1Cc1ccc(-c2ccccc2S(=O)(=O)NC(C)=O)cc1 [Example 6-9, (2R,3R)-3-{[1-(2′-Acetylsulfamoylbiphenyl-4-ylmethyl)-5-propyl-1H-pyrazole-3-carbonyl]-amino}-4-(2-chlorophenyl)-2-hydroxy-butyric acid]"
≤ 10 nM,≤ 10000 nM,"CCCc1cc(C(=O)N[C@@H](CC(=O)O)Cc2ccccc2)nn1Cc1ccc(-c2ccccc2-c2nnn[nH]2)cc1 [Example 2, (R)-4-Phenyl-3-({5-propyl-1-[2′-(1H-tetrazol-5-yl)-biphenyl-4-ylmethyl]-1H-pyrazole-3-carbonyl}amino)butyric Acid]"
